Experimental data published in PubChem BioAssay AID179 (DTP/NCI, 2004).
Calls of active or inactive are those of the source.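 The calls were made as follows: active = compounds giving half or more protection of infected cells from virus-caused growth loss, again on retest; inactive = the rest.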

Test system: CEM cells HIV-1 protection, formazan growth assay
Experiment: NCI AIDS Antiviral Assay
Conditions: for IC50: measured here: growth of uninfected CEM cells
Procedure, shortened: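 Screen of anti-HIV-1 activity in human CEM cells using a formazan-based growth measurement at five drug concentrations. Hits with 50% or greater protection were repeated, and confirmation required reproducible complete protection.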

C1CN2CCN3CCN4CCN1[P+]243
outcome: inactive

O=c1[nH]nc2ccc(n[nH]c1=O)c1ccccc21
EC50: > 200 µM | IC50: 7.41 µM

c1ccc(SC2CCCO2)cc1 (stereo not drawn)
outcome: inactive

Cc1cc2nc(-c3ccccc3Cl)[nH]c2cc1C
EC50: > 100 µM | IC50: 32.4 µM

COC1=C(N=[N+]=[N-])C(=O)c2ncccc2C1=O
outcome: inactive

Cn1c2c(c(=O)c3cc(O)ccc31)CC(O)C(C)(C)O2 (stereo not drawn)
EC50: > 912 µM | IC50: 891 µM

O=C1C=CC(=O)C2C3c4ccccc4C(c4ccccc43)C12 (stereo not drawn)
EC50: > 34.7 µM | IC50: > 34.7 µM

CSc1cc(-c2ccccn2)nc(-c2ccccn2)c1.CSc1cc(-c2ccccn2)nc(-c2ccccn2)c1.[O-][Cl+3]([O-])([O-])[O-].[Zn+2]
EC50: > 200 µM | IC50: 0.0631 µM

O=C(Nc1ccc(Cl)c(Cl)c1)C(=O)Nn1c(=S)[nH]c2ccccc2c1=O
EC50: > 437 µM | IC50: 257 µM

O=C1c2ccccc2C(=O)C1(Br)C(Br)c1ccccc1 (stereo not drawn)
EC50: > 200 µM | IC50: 2.57 µM

C=CCO/N=C(\OC(=O)c1ccc([N+](=O)[O-])cc1)c1ccccc1
EC50: > 151 µM | IC50: > 151 µM

O=S(Cc1ccccc1)/C(=C/NC(=S)Nc1cc(Cl)ccc1Cl)c1ccccc1 (stereo not drawn)
EC50: > 200 µM | IC50: > 200 µM

CC1C(=O)CC2OC3CC(C)(Cl)C(Br)CC31C2(C)C (stereo not drawn)
outcome: inactive

Cc1ccc(S(=O)(=O)N/C(=C\C=C\c2ccccc2)C(=O)C(C)(C)C)cc1
EC50: 38.9 µM | IC50: 57.5 µM

COC(=O)c1cc(C(CCl)c2cc(C(=O)OC)c(OC)c(Br)c2C)c(C)c(Br)c1OC
EC50: > 200 µM | IC50: 8.71 µM

FC(F)(Oc1ccc2oc3ccccc3c2c1)c1nc2ccccc2o1
EC50: > 200 µM | IC50: 33.9 µM

O=C(CCCN1CCC2(CC1)CC(c1ccccc1)OC2=O)c1ccc(F)cc1 (stereo not drawn)
EC50: > 200 µM | IC50: 89.1 µM

CC(C)(C)N1CC1CNC(=O)C(=O)NCC1CN1C(C)(C)C (stereo not drawn)
EC50: > 200 µM | IC50: 1.35 µM

O=[N+]([O-])c1sc2ccc(Cl)cc2c1Nc1ccc(Cl)cc1
EC50: > 200 µM | IC50: > 200 µM

O=C(Nc1cccc(C(=O)NCCCO)c1)/C(=C/c1ccccc1)NC(=O)c1ccccc1
EC50: > 200 µM | IC50: > 200 µM

Cc1cccc(/C=N/NC(=S)Nc2ccccc2)n1
EC50: > 200 µM | IC50: 2 µM

COC(=O)c1ccc(NCc2cc(O)c3ccccc3c2O)cc1
EC50: > 200 µM | IC50: 3.02 µM

NC(N)=NS(=O)(=O)c1ccc(Nc2c3ccccc3nc3c(C(=O)Nc4ccc(S(N)(=O)=O)cc4)ccc(Cl)c23)cc1
EC50: > 41.7 µM | IC50: > 41.7 µM

O=C1c2cccc(O)c2Cc2c(O)cc(CO)cc21
EC50: > 100 µM | IC50: 52.5 µM

CN1C/C(=C\c2cccs2)C(O)/C(=C/c2cccs2)C1 (stereo not drawn)
EC50: > 200 µM | IC50: 115 µM

CC(=O)O[C@@H]1CC[C@]2(C)C3CC[C@]4(C)C(C(C)CCc5nc6ccccc6[nH]5)CCC4C3CC[C@@H]2C1 (stereo partly drawn)
EC50: > 50.1 µM | IC50: 15.5 µM

CN1N(c2ccccc2)C(=O)C2=NC=C(C#N)C(=N)C21C (stereo not drawn)
EC50: > 200 µM | IC50: 64.6 µM

CCN=C(NC(=O)c1ccc(F)cc1)SCSC(=NCC)NC(=O)c1ccc(F)cc1
EC50: > 200 µM | IC50: > 200 µM

C/C=C1\CC(C(=O)OCC)CCCCCCCCCCC1=O (stereo not drawn)
EC50: > 200 µM | IC50: 8.51 µM

CN(C)C=Nc1ccc2c3c(cccc13)-c1ccccc1-2
EC50: > 200 µM | IC50: 14.1 µM

CC(=O)OC1C2CCC3CC2C2(SCCS2)C31 (stereo not drawn)
EC50: > 200 µM | IC50: > 200 µM

COC1CC(C)(N)C(O)C(C)O1 (stereo not drawn)
EC50: > 200 µM | IC50: > 200 µM

Cc1ccc([N+](=O)[O-])c2c(NCCC[N+](C)(C)[O-])c3ccccc3nc12
EC50: > 2 µM | IC50: 0.316 µM

COc1ccc(C[C@H]2COC(=O)[C@@H]2Cc2cccc(Br)c2)cc1OC
EC50: > 200 µM | IC50: 31.6 µM

Cc1ccsc1/C=N/Nc1cc(C)c2ccccc2n1
EC50: > 200 µM | IC50: 5.37 µM

CCn1c(N)c(N=O)c(=O)[nH]c1=O
EC50: > 200 µM | IC50: > 200 µM
